Data published in patent US8741897B2, “Glucocorticoid mimetics, methods of making them, pharmaceutical compositions and uses thereof” (Boehringer Ingelheim Pharmaceuticals Inc., priority 2003, dated 2014).

Test system: glucocorticoid receptor function
Assay: one or more of the above assays (GR binding and glucocorticoid receptor cell assays: aromatase, IL-6, TAT, MMTV-Luc, IL-8, ICAM-Luc)
Type: cell-based
Conditions: assay not specified per compound

| SMILES | activity as agonists of the glucocorticoid receptor function in one or more of the above assays |
| --- | --- |
| CN(C)c1cc2cc(CC(O)(CC(C)(C)c3ccccc3)C(F)(F)F)[nH]c2cn1 (stereo not drawn) [2-(5-Dimethylamino-1H-pyrrolo[2,3-c]pyridin-2-ylmethyl)-1,1,1-trifluoro-4-methyl-4-phenylpentan-2-ol] | potent agonists |
| COc1ccc(F)cc1C(C)(C)CC(O)(Cc1cc2cnccc2[nH]1)C1CC1 (stereo not drawn) [2-Cyclopropyl-4-(5-fluoro-2-methoxyphenyl)-4-methyl-1-(1H-pyrrolo[3,2-c]pyridin-2-yl)pentan-2-ol] | agonists |
| COc1ccc(F)cc1C(C)(C)CC(O)(Cc1cc2cnccc2[nH]1)C(C)C (stereo not drawn) [5-(5-Fluoro-2-methoxyphenyl)-2,5-dimethyl-3-(1H-pyrrolo[3,2-c]pyridin-2-ylmethyl)hexan-3-ol] | agonists |
| COc1ccc(-c2ccsc2)cc1C(C)(C)CC(O)(Cc1cc2c(C)nccc2[nH]1)C(F)(F)F (stereo not drawn) [1,1,1-Trifluoro-4-(2-methoxy-5-thiophen-3-ylphenyl)-4-methyl-2-(4-methyl-1H-pyrrolo[3,2-c]pyridin-2-ylmethyl)pentan-2-ol] | potent agonists |
| CC(C)(CC(O)(Cn1ccc2c1CCCC2=O)C(F)(F)F)c1cc(F)ccc1O (stereo not drawn) | agonists |
| CC(C)(CC(O)(Cc1cc2ncncc2[nH]1)C(F)(F)F)c1cc(F)ccc1O (stereo not drawn) [4-Fluoro-2-[4,4,4-trifluoro-3-hydroxy-1,1-dimethyl-3-(5H-pyrrolo[3,2-d]pyrimidin-6-ylmethyl)butyl]phenol] | potent agonists |
| CCN(CC)c1cc2cc(CC(O)(CC(C)(C)c3cc(F)ccc3C)C(F)(F)F)[nH]c2cn1 (stereo not drawn) [2-(5-Diethylamino-1H-pyrrolo[2,3-c]pyridin-2-ylmethyl)-1,1,1-trifluoro-4-(5-fluoro-2-methylphenyl)-4-methylpentan-2-ol] | potent agonists |
| Cc1ccc(F)cc1C(C)(C)CC(O)(Cn1ccc2c1CCCC2=O)C(F)(F)F (stereo not drawn) [1-[4-(5-Fluoro-2-methylphenyl)-2-hydroxy-4-methyl-2-trifluoromethylpentyl]-1,5,6,7-tetrahydroindol-4-one] | agonists |
| CC(C)C(=O)c1ccc2[nH]c(CC(O)(CC(C)(C)c3cc(Cl)cc4c3OCC4)C(F)(F)F)cc2n1 (stereo not drawn) [1-{2-[4-(5-Chloro-2,3-dihydrobenzofuran-7-yl)-2-hydroxy-4-methyl-2-trifluoromethylpentyl]-1H-pyrrolo[3,2-b]pyridin-5-yl}-2-methylpropan-1-one] | potent agonists |
| CC(C)(CC(O)(Cc1cc2nc(CO)ccc2[nH]1)C(F)(F)F)c1cc(Cl)cc2c1OCC2 (stereo not drawn) [4-(5-Chloro-2,3-dihydrobenzofuran-7-yl)-1,1,1-trifluoro-2-(5-hydroxymethyl-1H-pyrrolo[3,2-b]pyridin-2-ylmethyl)-4-methylpentan-2-ol] | potent agonists |
| CC(C)(CC(O)(Cc1cc2cnccc2[nH]1)C1CC1)c1cc(Cl)cc2c1OCC2 (stereo not drawn) [4-(5-Chloro-2,3-dihydrobenzofuran-7-yl)-2-cyclopropyl-4-methyl-1-(1H-pyrrolo[3,2-c]pyridin-2-yl)pentan-2-ol] | agonists |
| CC(C)(CC(O)(Cc1cc2cc(-c3ccncc3)ccc2[nH]1)C(F)(F)F)c1cc(F)cc2c1OCC2 (stereo not drawn) [1,1,1-Trifluoro-4-(5-fluoro-2,3-dihydrobenzofuran-7-yl)-4-methyl-2-(5-pyridin-4-yl-1H-indol-2-ylmethyl)pentan-2-ol] | potent agonists |
| CC(C)(CC(O)(Cc1cc2nc(C(N)=O)ccc2[nH]1)C(F)(F)F)c1cc(Cl)cc2c1OCC2 (stereo not drawn) [2-[4-(5-Chloro-2,3-dihydrobenzofuran-7-yl)-2-hydroxy-4-methyl-2-trifluoromethylpentyl]-1H-pyrrolo[3,2-b]pyridine-5-carboxylic acid amide] | potent agonists |
| COc1ccc(-c2ccccc2C#N)cc1C(C)(C)CC(O)(Cc1cc2c(C)cncc2[nH]1)C(F)(F)F (stereo not drawn) [4′-Methoxy-3′-[4,4,4-trifluoro-3-hydroxy-1,1-dimethyl-3-(4-methyl-1H-pyrrolo[2,3-c]pyridin-2-ylmethyl)butyl]biphenyl-2-carbonitrile] | potent agonists |
| CC(C)(CC(O)(Cc1cc2cnccc2[nH]1)C(F)F)c1cc(F)ccc1O (stereo not drawn) [2-[4,4-Difluoro-3-hydroxy-1,1-dimethyl-3-(1H-pyrrolo[3,2-c]pyridin-2-ylmethyl)butyl]-4-fluorophenol] | agonists |
| CC(C)(CC(O)(Cc1cc2cc(N3CCCCC3)ncc2[nH]1)C(F)(F)F)c1ccccc1 (stereo not drawn) [1,1,1-Trifluoro-4-methyl-4-phenyl-2-(5-piperidin-1-yl-1H-pyrrolo[2,3-c]pyridin-2-ylmethyl)pentan-2-ol] | potent agonists |
| Cc1ccc(F)cc1C(C)(C)CC(O)(Cc1cc2cnccc2[nH]1)C1CC1 (stereo not drawn) [2-Cyclopropyl-4-(5-fluoro-2-methylphenyl)-4-methyl-1-(1H-pyrrolo[3,2-c]pyridin-2-yl)pentan-2-ol] | agonists |
| CC(C)(CC(O)(Cc1cc2ccncc2[nH]1)C(F)(F)F)c1cccc(C2OCCCO2)c1 (stereo not drawn) [4-(3-[1,3]Dioxan-2-ylphenyl)-1,1,1-trifluoro-4-methyl-2-(1H-pyrrolo[2,3-c]pyridin-2-ylmethyl)pentan-2-ol] | potent agonists |
| COc1ccc(-c2cccnc2)cc1C(C)(C)CC(O)(Cc1cc2c(C)cncc2[nH]1)C(F)(F)F (stereo not drawn) [1,1,1-Trifluoro-4-(2-methoxy-5-pyridin-3-ylphenyl)-4-methyl-2-(4-methyl-1H-pyrrolo[2,3-c]pyridin-2-ylmethyl)pentan-2-ol] | potent agonists |
| CC(C)(CC(O)(Cc1cc2cc(Cl)ncc2[nH]1)C(F)(F)F)c1cc(F)ccc1O (stereo not drawn) [2-[3-(5-Chloro-1H-pyrrolo[2,3-c]pyridin-2-ylmethyl)-4,4,4-trifluoro-3-hydroxy-1,1-dimethylbutyl]-4-fluorophenol] | potent agonists |
| CC(C)(CC(O)(Cc1cc2ncncc2[nH]1)C(F)(F)F)c1ccc(F)cc1O (stereo not drawn) [5-Fluoro-2-[4,4,4-trifluoro-3-hydroxy-1,1-dimethyl-3-(5H-pyrrolo[3,2-d]pyrimidin-6-ylmethyl)butyl]phenol] | potent agonists |
| CC(C)(CC(O)(Cc1cc2cc(N3CCOCC3)ncc2[nH]1)C(F)(F)F)c1ccccc1 (stereo not drawn) [1,1,1-Trifluoro-4-methyl-2-(5-morpholin-4-yl-1H-pyrrolo[2,3-c]pyridin-2-ylmethyl)-4-phenylpentan-2-ol] | potent agonists |
| CC(C)(CC(O)(Cn1ccc2ncccc21)C(F)F)c1cc(Cl)cc2c1OCC2 (stereo not drawn) [4-(5-Chloro-2,3-dihydrobenzofuran-7-yl)-1,1-difluoro-4-methyl-2-pyrrolo[3,2-b]pyridin-1-ylmethylpentan-2-ol] | agonists |
| Cc1nccc2[nH]c(CC(O)(CC(C)(C)c3cc(-c4ccsc4)ccc3O)C(F)(F)F)cc12 (stereo not drawn) [4-Thiophen-3-yl-2-[4,4,4-trifluoro-3-hydroxy-1,1-dimethyl-3-(4-methyl-1H-pyrrolo[3,2-c]pyridin-2-ylmethyl)butyl]phenol] | potent agonists |
| COc1ccc(F)cc1C(C)(C)CC(O)(Cc1cc2nc(-c3ccccc3)ncc2[nH]1)C(F)(F)F (stereo not drawn) [1,1,1-Trifluoro-4-(5-fluoro-2-methoxyphenyl)-4-methyl-2-(2-phenyl-5H-pyrrolo[3,2-d]pyrimidin-6-ylmethyl)pentan-2-ol] | potent agonists |
| CCN(C)c1cc2cc(CC(O)(CC(C)(C)c3cc(-c4ccccc4C#N)ccc3O)C(F)(F)F)[nH]c2cn1 (stereo not drawn) [3′-{3-[5-(Ethylmethylamino)-1H-pyrrolo[2,3-c]pyridin-2-ylmethyl]-4,4,4-trifluoro-3-hydroxy-1,1-dimethylbutyl}-4′-hydroxybiphenyl-2-carbonitrile] | potent agonists |
| CC(C)(CC(O)(Cc1cc2cnccc2[nH]1)C(F)F)c1cc(Cl)cc2c1OCC2 (stereo not drawn) [4-(5-Chloro-2,3-dihydrobenzofuran-7-yl)-1,1-difluoro-4-methyl-2-(1H-pyrrolo[3,2-c]pyridin-2-ylmethyl)pentan-2-ol] | agonists |
| CC(C)(CC(O)(Cc1cc2nc(-c3ccccc3)ncc2[nH]1)C(F)(F)F)c1cccc(F)c1 (stereo not drawn) [1,1,1-Trifluoro-4-(3-fluorophenyl)-4-methyl-2-(2-phenyl-5H-pyrrolo[3,2-d]pyrimidin-6-ylmethyl)pentan-2-ol] | potent agonists |
| COc1ccc(-c2ccccc2Cl)cc1C(C)(C)CC(O)(Cc1cc2cc(N3CCOCC3)ncc2[nH]1)C(F)(F)F (stereo not drawn) [4-(2′-Chloro-4-methoxybiphenyl-3-yl)-1,1,1-trifluoro-4-methyl-2-(5-morpholin-4-yl-1H-pyrrolo[2,3-c]pyridin-2-ylmethyl)pentan-2-ol] | potent agonists |
| CC(C)(CC(O)(Cc1cc2nnccc2[nH]1)C(F)(F)F)c1cc(F)ccc1O (stereo not drawn) [4-Fluoro-2-[4,4,4-trifluoro-3-hydroxy-1,1-dimethyl-3-(5H-pyrrolo[3,2-c]pyridazin-6-ylmethyl)butyl]phenol] | potent agonists |
